The target in one series is SOS1 and KRAS G12C (Homo sapiens (Human), UniProt Q07889). Kind of series: KRAS::SOS1 AlphaScreen binding assay (KRAS G12C). Conditions: average of at least two measurements. How it is done: (§1) Low IC50 values are indicative of high potency of the SOS1 inhibitor compound in this assay setting:
(§2) • GST-tagged SOS1 (564_1049_GST_TEV_ECO) produced in-house • 6xHis-Tev-K-RasG12D/G12C(1-169)Avi produced in-house • GDP (Sigma Cat No G7127) • AlphaLISA Glutathione Acceptor Beads (PerkinElmer, Cat No AL109) • AlphaScreen Streptavidin Donor Beads (PerkinElmer Cat No 6760002) • Assay plates: Proxiplate-384 PLUS, white (PerkinElmer, Cat No 6008289)
(§3) [formula] • KRAS::SOS1 GDP mix: • 7.5 nM (final assay concentration) K-RasG12C, 10 nM (final assay concentration) K-RasG12D, 10 μM (final assay concentration) GDP and 5 nM (final assay concentration) GST-SOS1 are mixed in assay buffer prior to use and kept at rt. Bead mix: • AlphaLISA Glutathione Acceptor Beads and AlphaScreen Streptavidin Donor Beads are mixed in the dark in assay buffer at a concentration of 10 μg/mL (final assay concentration) each prior to use and kept at rt.
(§4) Compounds are diluted to a final start concentration of 100 μM and are tested in duplicate. Assay-ready plates (ARPs) are generated using an Access Labcyte Workstation with a Labcyte Echo 550 or 555 acoustic dispenser. For compound a start concentration of 100 μM, 150 nL of compound solution is transferred per well in 11 concentrations in duplicate with serial 1:5 dilutions.
(§5) The assay is run using a fully automated robotic system in a darkened room below 100 Lux. 10 μL of KRAS::SOS1 GDP mix is added into columns 1-24 to the 150 nL of compound solution (final dilution in the assay 1:100, final DMSO concentration 1%).
(§6) After a 30 minute incubation time, 5 μL of bead mix is added into columns 1-23. Plates are kept at rt in a darkened incubator. After a further 60 minutes incubation, the signal is measured using a PerkinElmer Envision HTS Multilabel Reader using the AlphaScreen specifications from PerkinElmer. Each plate contains the following controls:
(§7) diluted DMSO+KRAS::SOS1 GDP mix+bead mix
(§8) diluted DMSO+KRAS::SOS1 GDP mix
(§9) Result calculation: IC50 values are calculated and analyzed using a 4 parametric logistic model.
(§10) Table 1: Inhibition values for KRAS G12C as well as for KRAS G12D. […] The value indicates an average value of at least two measurements.

A further series concerns the target SOS1 and KRAS G12D (Homo sapiens (Human), UniProt Q07889). Kind of series: KRAS::SOS1 AlphaScreen binding assay (KRAS G12D). Conditions: average of at least two measurements. How it is done:
as §1, §2, §3, §4, §5, §6, §7, §8, §9, §10
(In Alpha technology, singlet oxygen from a donor bead excites a nearby acceptor bead.)

Series [1] deals with ERK phosphorylation in NCI-H358 SOS2 KO cells (KRAS G12C). The series is described as follows: Erk phosphorylation assay. The series is classed as cell-based, human. Conditions: EGF stimulated, average of at least two measurements, read-out: pERK IC50. How it is done:
Low IC50 values are indicative of high potency of the SOS1 inhibitor compounds in this assay setting.
ERK phosphorylation assays are performed using the following human cell line: • NCI-H358 SOS2 KO (Hofmann, Gmachl, Ramharter et al, Cancer Discov. 2021, 11(1):142-15): human lung cancer with a KRAS G12C mutation;
NCI-H358 SOS2 KO are seeded at 50000 cells per well in 60 μL of DMEM with 2% FBS, in Greiner TC 384 plates. The cells are incubated overnight in an incubator at 37° C. and 5% CO2 in a humidified atmosphere. 60 nL compound solution (10 mM DMSO stock solution) is then added using a Beckman Coulter Labcyte Echo 550 device. After 50 min incubation in the aforementioned incubator, 5 nl EGF are added to each well for a final concentration of approx. 8 ng/mL using a Beckman Coulter Labcyte Echo 550 device and cells are incubated for another 10-15 minutes before lysis. The medium is removed, and the cells are lysed by addition of 20 μL of 1.6-fold lysis buffer from the AlphaLISA SureFire Ultra pERK1/2 (Thr202/Tyr204) Assay Kit with added protease inhibitors. After 20 minutes of incubation at rt with shaking, 6 μL of each lysate sample is transferred to a 384-well Proxiplate and analyzed for pERK (Thr202/Tyr204) with the AlphaLISA SureFire Ultra pERK1/2 (Thr202/Tyr204) Assay Kit. 3 μL Acceptor Mix and 3 μL Donor Mix are added under subdued light and incubated for 2 h at rt in the dark, before the signal is measured on a Perkin Elmer Envision plate reader using 384 AlphaScreen settings for Proxiplates. Data are fitted by iterative calculation with variable hill slope. The sigmoidal curve slope is fitted using a default fitting curve to ascertain IC50 values.
Table 2: Erk Phosphorylation assay. The value indicates an average value of at least two measurements.

The target of another series is P450 3A4 (Homo sapiens (Human), UniProt P08684). Kind of series: Cytochrome P450 isoenzyme inhibition assay (P450 3A4, midazolam). The series is classed as in vitro ADME. Conditions: human liver microsomes, Midazolam as substrate; read-out: CYP3A4 inhibition IC50. How it is done: For the following cytochrome P450 isoenzymes, these substrates and metabolic reactions are monitored: P450 3A4: hydroxylation of Midazolam (MDZ).
Sequence of P450 3A4 (P08684 whole entry): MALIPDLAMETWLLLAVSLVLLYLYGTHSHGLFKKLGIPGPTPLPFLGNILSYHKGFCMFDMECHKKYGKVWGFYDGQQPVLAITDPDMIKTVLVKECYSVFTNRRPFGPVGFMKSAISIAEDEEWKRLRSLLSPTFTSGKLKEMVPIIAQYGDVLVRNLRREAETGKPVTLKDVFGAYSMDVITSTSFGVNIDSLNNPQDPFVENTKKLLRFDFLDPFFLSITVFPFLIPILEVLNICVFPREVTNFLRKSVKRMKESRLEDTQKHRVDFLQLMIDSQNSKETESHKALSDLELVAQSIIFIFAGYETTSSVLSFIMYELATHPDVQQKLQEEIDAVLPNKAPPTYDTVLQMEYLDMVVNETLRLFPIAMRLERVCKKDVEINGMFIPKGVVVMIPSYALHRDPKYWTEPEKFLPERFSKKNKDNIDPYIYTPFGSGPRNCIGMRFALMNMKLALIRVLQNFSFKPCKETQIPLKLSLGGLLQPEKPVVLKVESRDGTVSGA
The final incubation volume contains TRIS buffer (0.1 M), MgCl2 (5 mM), a certain concentration of human liver microsomes dependent on the P450 isoenzyme measured (P450 3A4: 0.1 mg/ml) and a certain concentration of the individual substrate for each isoenzyme (P450 3A4: Midazolam 5 μM).
The effect of the test compound is determined at five different concentrations in duplicate (e.g. highest concentration 50 μM with subsequent serial 1:4 dilutions) or without test compound (high control). Following a short preincubation period, reactions are started with the cofactor (NADPH, 1 mM) and stopped by cooling the incubation down to 8° C. and subsequently by addition of one volume of ACN. An internal standard solution—usually the stable isotope of the formed metabolite—is added after quenching of incubations. Peak area analyte (=metabolite formed) and internal standard is determined by LC-MS/MS. The resulting peak area ratio analyte to internal standard in these incubations is compared to a control activity containing no test compound. Within each of the assay runs, the IC50 of a positive control inhibitor dependent on the P450 isoenzyme measured (P450 3A4: ketoconazole) is determined. The assay results are plotted against compound concentrations to calculated IC50 values (half maximal inhibitory concentrations) for inhibitory compounds utilizing Software IDBS E-WorkBook.
Table 4: Inhibition of P450 isoenzyme 3A^4.
(Liver microsomes are vesicles of endoplasmic reticulum, rich in cytochrome P450 enzymes.)

For a further series, the system named is human hepatocytes. Kind of series: Metabolic stability in human hepatocytes. To be noted: 1 μM test compound, 50% human serum, percentage of liver blood flow.
Setting [2] is: Homo sapiens, NCI-H358, NCI-H358 SOS2 KO cells.

Where two headings read alike, the source gives them in different places. Bounds are passed on as bounds.

Sequence of SOS1 and KRAS G12C (Q07889 564-1049, stated change not applied): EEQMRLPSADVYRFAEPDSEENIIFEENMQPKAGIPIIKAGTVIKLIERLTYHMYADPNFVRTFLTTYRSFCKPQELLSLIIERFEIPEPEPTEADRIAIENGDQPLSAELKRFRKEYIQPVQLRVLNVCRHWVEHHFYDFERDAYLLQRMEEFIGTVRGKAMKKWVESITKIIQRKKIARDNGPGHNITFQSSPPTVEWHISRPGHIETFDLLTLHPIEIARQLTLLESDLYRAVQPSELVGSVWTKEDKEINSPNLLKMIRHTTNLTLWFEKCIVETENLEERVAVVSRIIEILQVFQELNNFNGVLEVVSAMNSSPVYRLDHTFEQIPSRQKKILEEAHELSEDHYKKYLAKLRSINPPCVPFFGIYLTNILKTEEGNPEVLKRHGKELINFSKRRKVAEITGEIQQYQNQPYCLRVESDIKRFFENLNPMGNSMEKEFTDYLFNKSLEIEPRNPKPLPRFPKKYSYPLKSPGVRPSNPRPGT
Sequence of SOS1 and KRAS G12D (Q07889 564-1049, stated change not applied): as above

One may read the IC50 as the point on the concentration scale where inhibition reaches its midpoint. For `C[C@@H](NC(=O)c1cc(N2CCC(N3CCCC(O)CC3)CC2)c2ncnn2c1)c1cccc(C(F)F)c1F` (single isomer, unassigned) [Example E17a], the IC50 at SOS1 and KRAS G12C was 39 nM; on SOS1 and KRAS G12D, 28 nM; in series [1] (NCI-H358 SOS2 KO cells), 94 nM; at P450 3A4 it was more than 50000 nM. In the series with human hepatocytes, the “Hepatic clearance - QH[%] in human hepatocytes” value (shortened to “Hepatic clearance - QH[%]”) is on record as 13%.
In the case of `C[C@@H](NC(=O)c1cc(N2CCC(N3CC4CC4C3CO)CC2)c2ncnn2c1)c1cccc(C(F)F)c1F` (single isomer, unassigned) [Example cis-E11a], the IC50 at SOS1 and KRAS G12C was 22 nM; on SOS1 and KRAS G12D it was 15 nM; in series [1] (setting [2]) it was 173 nM; on P450 3A4, more than 50000 nM. In addition, the “Hepatic clearance - QH[%]” value in the series with human hepatocytes stood at 38%.
As for `C[C@@H](NC(=O)c1cc(N2CCC(N3CC4CC4C3CO)CC2)c2ncnn2c1)c1cccc(C(F)F)c1F` (single isomer, unassigned) [Example cis-E11b], the IC50 at SOS1 and KRAS G12C was 28 nM; on SOS1 and KRAS G12D it was 19 nM; in series [1] (NCI-H358 SOS2 KO cells) it was 145 nM; at P450 3A4, more than 50000 nM. Further, the “Hepatic clearance - QH[%]” value in the series with human hepatocytes is listed as 27%.
The matching figures for `C[C@@H](NC(=O)c1cc(N2CCC(NC3COCC3O)CC2)c2ncnn2c1)c1cccc(C(F)(F)F)c1F` (single isomer, unassigned) [Example cis-E41a]: 50 nM, 38 nM, 463 nM, more than 50000 nM and 37%.
The like results for `C[C@@H](NC(=O)c1cc(N2CCC3CCNC3C2)c2ncnn2c1)c1cccc(C(F)(F)F)c1F` (single isomer, unassigned) [Example cis-E52a] were, in that order, 59 nM, 58 nM, 115 nM, more than 50000 nM and 7%.
As for `C[C@@H](NC(=O)c1cc(N2CCC(NC3CCCC3(C)O)CC2)c2ncnn2c1)c1cccc(C(F)(F)F)c1F` (single isomer, unassigned) [Example trans-E53a], the IC50 at SOS1 and KRAS G12C was 24 nM; on SOS1 and KRAS G12D, 24 nM; in series [1] (NCI-H358 SOS2 KO cells), 143 nM; at P450 3A4, more than 50000 nM. The “Hepatic clearance - QH[%]” value with human hepatocytes was found to be 45%.
With `C[C@@H](NC(=O)c1cc([C@H]2CC[C@H](N3CCC(F)C(O)C3)CC2)c2ncnn2c1)c1cccc(C(F)(F)F)c1F` (single isomer, unassigned) [Example trans-E70a], the IC50 on SOS1 and KRAS G12C is 29 nM; at SOS1 and KRAS G12D it was 34 nM; in series [1] (setting [2]) it was 259 nM; at P450 3A4, more than 50000 nM. Also, the “Hepatic clearance - QH[%]” value with human hepatocytes was determined as 25%.
The like results for `C[C@@H](NC(=O)c1cc(N2CCC(N(C)CC3(O)CC3)CC2)c2ncnn2c1)c1cccc(C(F)F)c1F` [Example E13] were, in that order, 52 nM, 54 nM, 288 nM, more than 50000 nM and 21%.
The like results for `C[C@@H](NC(=O)c1cc(N2CCC(N3CCO[C@H](CO)C3)CC2)c2ncnn2c1)c1cccc(C(F)F)c1F` [Example E14] were, in that order, 69 nM, 51 nM, 490 nM, more than 50000 nM and 31%.
The matching figures for `C[C@@H](NC(=O)c1cc(N2CCC(N3CCO[C@@H](CO)C3)CC2)c2ncnn2c1)c1cccc(C(F)F)c1F` [Example E15]: 68 nM, 46 nM, 554 nM, more than 50000 nM and 31%.
Take `C[C@@H](NC(=O)c1cc(N2CCC(N3CCC4(CC4)C3)CC2)c2ncnn2c1)c1cccc(C(F)(F)F)c1F` [Example E33]: the IC50 on SOS1 and KRAS G12C was 80 nM; on SOS1 and KRAS G12D, 73 nM; in series [1] (setting [2]) it was 326 nM; on P450 3A4, more than 50000 nM. Besides, the “Hepatic clearance - QH[%]” value with human hepatocytes came to 15%.
On to `C[C@@H](NC(=O)c1cc(N2CCC(N3CCCC(O)CC3)CC2)c2ncnn2c1)c1cccc(C(F)(F)F)c1F` (stereo partly shown) [Example E43b], for which the “Hepatic clearance - QH[%]” value in the series with human hepatocytes was found to be 25%.
Take `C[C@@H](NC(=O)c1cc(N2CCC(N3CCCCC3)CC2)c2ncnn2c1)c1cccc(C(F)(F)F)c1F` [Example E49]: the IC50 at SOS1 and KRAS G12C was 49 nM; on SOS1 and KRAS G12D, 43 nM; in series [1] (setting [2]) it was 250 nM; at P450 3A4, more than 50000 nM. In addition, the “Hepatic clearance - QH[%]” value in the series with human hepatocytes turned out to be 23%.

The values are drawn from patent US20250313560A1, “Novel bicyclic benzylamido pyridine derivatives as SOS1 inhibitors” (Boehringer Ingelheim International GmbH, priority 2024, published 2025).
